Assay results: the OligoGym collection
HELM strings list units from the 5' end as sugar, base in round brackets, then linkage (d deoxyribose, r ribose, m 2'-O-methyl, p phosphodiester). Strings are as the collection lists them; they lack the last nucleoside at the 3' end of the tested compound. [moe] = 2'-O-(2-methoxyethyl) (MOE); [sp] = phosphorothioate linkage; [m5C] = 5-methylcytosine

Target: SCN2A
Assay: mouse, dose not given
Settings: ASO

Row | Substance | 3 h FOB score
1 | RNA1{[moe]([m5C])[sp].[moe]([m5C])p.[moe](G)p.[moe](A)p.[moe](A)p.d(T)[sp].d(T)[sp].d([m5C])[sp].d(T)[sp].d(A)[sp].d(T)[sp].d(T)[sp].d(T)[sp].d(T)[sp].d(A)[sp].[moe](T)p.[moe](A)p.[moe](A)[sp].[moe](A)}$$$$ (last 3' nucleoside missing) | 0.67 score 0-7
2 | RNA1{[moe]([m5C])[sp].[moe]([m5C])p.[moe](G)p.[moe](A)p.d(A)[sp].d(T)[sp].d(T)[sp].d([m5C])[sp].d(T)[sp].d(A)[sp].d(T)[sp].d(T)[sp].d(T)[sp].d(T)[sp].[moe](A)p.[moe](T)p.[moe](A)p.[moe](A)[sp].[moe](A)}$$$$ (last 3' nucleoside missing) | 0 score 0-7
